According to ChEMBL document CHEMBL1201862, “PubChem BioAssay data set” (2004):
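How tested: cells in 96-well plates exposed to compound for 48 hours at five concentrations. GI50 = concentration required for 50% inhibition of growth.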 Calls of active or inactive are those of the source. No stated cut-off is given here; in the data, active = GI50 up to about 1.1 µM and inactive = higher.

Key:
Test in all cases: NCI tumour cell line growth inhibition, 48 h
DLD-1 = test system: DLD-1
EKVX = test system: EKVX
LXFL 529 = test system: LXFL 529
A549 = test system: A549
COLO 205 = test system: COLO 205
SF-295 = test system: SF-295
CCRF-CEM = test system: CCRF-CEM
SW-620 = test system: SW-620
HOP-62 = test system: HOP-62
OVCAR-4 = test system: OVCAR-4
DMS-114 = test system: DMS-114
HCT-116 = test system: HCT-116
SNB-75 = test system: SNB-75
SK-MEL-28 = test system: SK-MEL-28
HOP-92 = test system: HOP-92
HCT-15 = test system: HCT-15
U-251 = test system: U-251
TK-10 = test system: TK-10
Malme-3M = test system: Malme-3M
786-0 = test system: 786-0
HL-60 = test system: HL-60
UACC-62 = test system: UACC-62
SK-OV-3 = test system: SK-OV-3
A498 = test system: A498
UO-31 = test system: UO-31
RPMI-8226 = test system: RPMI-8226
HOP-18 = test system: HOP-18
K562 = test system: K562
RXF 393 = test system: RXF 393
SF-539 = test system: SF-539
KM12 = test system: KM12
NCI-H522 = test system: NCI-H522
KM-20L2 = test system: KM-20L2
NCI-H460 = test system: NCI-H460
MOLT-4 = test system: MOLT-4
LOX IMVI = test system: LOX IMVI
DMS-273 = test system: DMS-273
CAKI-1 = test system: CAKI-1
NCI-H23 = test system: NCI-H23
OVCAR-8 = test system: OVCAR-8
UACC-257 = test system: UACC-257
SN12C = test system: SN12C
RXF 631 = test system: RXF 631
HCC 2998 = test system: HCC 2998
ACHN = test system: ACHN
HT-29 = test system: HT-29
OVCAR-5 = test system: OVCAR-5
IGROV-1 = test system: IGROV-1
SK-MEL-2 = test system: SK-MEL-2
M19-MEL = test system: M19-MEL
NCI-H226 = test system: NCI-H226
SNB-78 = test system: SNB-78
SNB-19 = test system: SNB-19
OVCAR-3 = test system: OVCAR-3
SK-MEL-5 = test system: SK-MEL-5
M14 = test system: M14
SF-268 = test system: SF-268
SR = test system: SR

Measured: GI50

CCOC(=O)CCC(NC(=O)c1ccc(NC(OC)c2nc3cc(C(F)(F)F)ccc3nc2-c2ccccc2)cc1)C(=O)OCC (centres undefined)
inactive: DLD-1 9.4 µM | EKVX 18 µM | LXFL 529 7.6 µM | A549 18.5 µM | COLO 205 16.5 µM | SF-295 16.2 µM | CCRF-CEM 2.51 µM | SW-620 7.62 µM | HOP-62 17 µM | OVCAR-4 21.5 µM | DMS-114 12.7 µM | HCT-116 2.92 µM | SNB-75 19.9 µM | SK-MEL-28 17.3 µM | HOP-92 16 µM | U-251 15.6 µM | TK-10 21 µM | Malme-3M 17 µM | 786-0 12.7 µM | HL-60 2.21 µM | UACC-62 16.9 µM | SK-OV-3 18.1 µM | A498 17.3 µM | UO-31 13.6 µM | RPMI-8226 6.41 µM | HOP-18 18.5 µM | K562 2.89 µM | RXF 393 13.9 µM | SF-539 13.2 µM | KM12 6.24 µM | NCI-H522 12.3 µM | KM-20L2 13.6 µM | NCI-H460 12.7 µM | MOLT-4 2.67 µM | LOX IMVI 10.4 µM | DMS-273 7.36 µM | CAKI-1 17.1 µM | NCI-H23 16 µM | OVCAR-8 10.3 µM | UACC-257 16.3 µM | SN12C 14.5 µM | RXF 631 13.7 µM | HCC 2998 15.8 µM | ACHN 16.1 µM | HT-29 7.93 µM | OVCAR-5 17.6 µM | IGROV-1 15.7 µM | SK-MEL-2 17.3 µM | M19-MEL 14.7 µM | NCI-H226 18.6 µM | SNB-78 19.1 µM | SNB-19 14.4 µM | OVCAR-3 18.5 µM | SK-MEL-5 16.3 µM | M14 15.4 µM | SF-268 16.6 µM
14.3 µM: HCT-15

COc1ccc2c3c([nH]c2c1[N+](=O)[O-])C(C)=NCC3
inactive: DLD-1 99.1 µM | EKVX > 100 µM | LXFL 529 > 100 µM | A549 77.4 µM | COLO 205 15.2 µM | SF-295 72.8 µM | CCRF-CEM 93.5 µM | SW-620 53.1 µM | HOP-62 > 100 µM | OVCAR-4 > 100 µM | DMS-114 > 100 µM | HCT-116 30.2 µM | SNB-75 > 100 µM | SK-MEL-28 > 100 µM | U-251 > 100 µM | TK-10 > 100 µM | 786-0 > 100 µM | HL-60 > 100 µM | UACC-62 19.5 µM | A498 18.8 µM | UO-31 98.4 µM | RPMI-8226 39.7 µM | K562 62.7 µM | RXF 393 > 100 µM | SF-539 65.6 µM | KM12 89.3 µM | NCI-H522 > 100 µM | KM-20L2 69.3 µM | NCI-H460 34.9 µM | MOLT-4 30.8 µM | LOX IMVI 50.9 µM | DMS-273 41.7 µM | CAKI-1 47.1 µM | NCI-H23 > 10 µM | OVCAR-8 62.7 µM | UACC-257 > 100 µM | SN12C 80.7 µM | RXF 631 > 100 µM | HCC 2998 > 100 µM | ACHN 52.6 µM | HT-29 56.8 µM | OVCAR-5 61 µM | IGROV-1 20.9 µM | SK-MEL-2 > 100 µM | NCI-H226 51.8 µM | SR 40.4 µM | SNB-78 > 100 µM | SNB-19 > 100 µM | OVCAR-3 > 100 µM | M14 > 100 µM | SF-268 20 µM
> 100 µM: HCT-15
